The values that follow come from patent US4650798A, “Antiarrhythmic 2,2-dialkyl-1-(aminoalkyl)-spiro[chroman-4,4'-imidazolidine]-2',5'-dione s” (priority 1984, dated 1987).

As usually defined, the LD50 is the dose expected to kill half of the subjects tested.

Data set [1] deals with Chloroform-induced arrhythmia. The experiment in a line: Chloroform-induced arrhythmia (mice). To be noted: for minimal effective dose: Mus musculus, po, 1 h, read-out: Effective dose; for Lethal dose: peroral, mice. As to the method: (1) Chloroform-induced arrhythmia (mice):
Ventricular arrhythmia was caused experimentally in mice by the following method.
The mice were placed in a device filled with chloroform gas. After expiring, the ventricular pulse was counted from a record of an electrocardiogram. The antiarrhythmic activity of the test compound was determined based on its effect of relieving tachycardia. […] The compounds were tested by administration by two routes, i.e. peroral and intravenous injection. […] As comparative standard medicines, quinidine, disopyramide and phenytoin were employed. This method is taught in the publication, J. Pharmacol. Exp. Ther. 160,22 (1968), by J. W. Lawson.

For the next data set, the system named is myocardia. The experiment in a line: Contraction of the myocardia. To be noted: dose several times as much as that required for the antiarrhythmic effects. An excerpt: This property is quite preferred when they are used as antiarrhythmic agents.
The nature of data set [2]: Acute toxicity (rats), peroral. To be noted: rat, in vivo, po. An excerpt:
(3) Acute toxicity (rats):
The acute toxicity tests on rats (peroral administration) were effected using typical compounds of the present invention, i.e. 6-chloro-2,2-dimethyl-1'-[3-(4-hydroxypiperidino)propyl]spiro[chroman-4,4'-imidazolidine]-2',5'-dione (compound 1) and 2,2-dimethyl-6-fluoro-1'-[3-(4-hydroxypiperidino)propyl]-spiro[chroman-4,4'-imidazolidine]-2',5'-dione (compound 2).

On to `O=C1NC(=O)C(c2ccccc2)(c2ccccc2)N1` [Phenytoin sodium, reference compound], for which, in data set [1], the minimal effective dose was 100 mg/kg and the Lethal dose was over 800 mg/kg.
As to `CC(C)N(CCC(C(N)=O)(c1ccccc1)c1ccccn1)C(C)C` (stereo not shown) [disopyramide], the “contraction power of the myocardia” value in the data set with myocardia is listed as “reduce the contraction power of the myocardia”.
For `CC1(C)CC2(NC(=O)N(CCCN3CCC(O)CC3)C2=O)c2cc(Cl)ccc2O1` (stereo not shown) [drawing 12], in data set [1], the minimal effective dose was found to be 25 mg/kg and the Lethal dose came out at 400 mg/kg.
For `CC1(C)CC2(NC(=O)N(CCCN3CCC(O)CC3)C2=O)c2cc(F)ccc2O1` (stereo not shown) [drawing 13], in data set [1], the minimal effective dose is 25 mg/kg and the Lethal dose is recorded as 400 mg/kg.
On the same counts, the results for `CCN(CC)CCN1C(=O)NC2(CC(C)(C)Oc3ccc(F)cc32)C1=O` (stereo not shown) are 12.5 mg/kg and 200 mg/kg.
`CC1(C)CC2(NC(=O)N(CCCN3CCC(O)CC3)C2=O)c2cc(Cl)ccc2O1` (stereo not shown) [Compound 1, 6-chloro-2,2-dimethyl-1'-[3-(4-hydroxypiperidino)propyl]spiro[chroman-4,4'-imidazolidine]-2',5'-dione]: the LD50 was found to be 858 mg/kg in data set [2] (female rats) and 930 mg/kg in data set [2] (male rats).
Turning to `CCC1(CC)CC2(NC(=O)N(CCCN3CCC(O)CC3)C2=O)c2cc(F)ccc2O1` (stereo not shown), in data set [1], the minimal effective dose turned out to be 25 mg/kg and the Lethal dose came out at 400 mg/kg.
`CC1(C)CC2(NC(=O)N(CCCN3CCC(O)CC3)C2=O)c2cc(F)ccc2O1` (stereo not shown) [Compound 2, 2,2-dimethyl-6-fluoro-1'-[3-(4-hydroxypiperidino)propyl]-spiro[chroman-4,4'-imidazolidine]-2',5'-dione]: the 50% lethal dose (LD50) in data set [2] (female rats) stood at 780 mg/kg; in data set [2] (male rats), 860 mg/kg.
For the molecule `CC1(C)CC2(NC(=O)N(CCCN3CCC(c4ccccc4)CC3)C2=O)c2cc(F)ccc2O1` (stereo not shown), in data set [1], the minimal effective dose came to 50 mg/kg and the Lethal dose is recorded as 200 mg/kg.
Turning to `C=C[C@H]1C[N@@]2CC[C@H]1C[C@@H]2[C@@H](O)c1ccnc2ccc(OC)cc12` [quinidine], the “contraction power of the myocardia” value with myocardia is reported as “reduce the contraction power of the myocardia”.
Turning to `C=CC1CN2CCC1CC2C(O)c1ccnc2ccc(OC)cc12` (stereo not shown) [Quinidine sulfonate, reference compound], in data set [1], the minimal effective dose stood at 200 mg/kg and the Lethal dose turned out to be 800 mg/kg.
`CC(C)N(CCN1C(=O)NC2(CC(C)(C)Oc3ccc(F)cc32)C1=O)C(C)C` (stereo not shown): in data set [1], the minimal effective dose came to 25 mg/kg and the Lethal dose is 200 mg/kg.
On the same counts, the results for `CC1(C)CC2(NC(=O)N(CCCN3CCC(O)CC3)C2=O)c2cc(Cl)cc(Cl)c2O1` (stereo not shown) are 12.5 mg/kg and 400 mg/kg.
On the same counts, the results for `CC(C)N(CCC(C(N)=O)(c1ccccc1)c1ccccn1)C(C)C` (stereo not shown) [Disopyramide phosphate, reference compound] are 50 mg/kg and 600 mg/kg.
Take `CN(C)CCN1C(=O)NC2(CC(C)(C)Oc3ccc(F)cc32)C1=O` (stereo not shown): in data set [1], the minimal effective dose was found to be 50 mg/kg and the Lethal dose was determined as 400 mg/kg.
On the same counts, the results for `CCC1(CC)CC2(NC(=O)N(CCCN(C)C)C2=O)c2cc(Cl)ccc2O1` (stereo not shown) are 25 mg/kg and 400 mg/kg.
Turning to `COC1CCN(CCCN2C(=O)NC3(CC(C)(C)Oc4ccc(F)cc43)C2=O)CC1` (stereo not shown), in data set [1], the minimal effective dose worked out at 25 mg/kg and the Lethal dose is 400 mg/kg.
Regarding `CC1CC2(NC(=O)N(CCCN(C)C)C2=O)c2cc(Cl)ccc2O1` (stereo not shown), in data set [1], the minimal effective dose worked out at 12.5 mg/kg and the Lethal dose is 50 mg/kg.
